According to patent publication US20250019671A1, “RECOMBINANT POLYPEPTIDE HAVING CARBOXYLIC ACID REDUCING ACTIVITY” (priority 2021, published 2025):

Tests used:
[1] = target: Mycobacterium abscessus carboxylic acid reductase variant W283R/A303M (modified carboxylic acid reductase 1), SEQ ID NO: 3 (Mycobacteroides abscessus, UniProt B1MLD7, A303M/W283R); conditions: disodium adipate 0.1875-3 mM; 0.2 mM NADPH, 0.5 mM ATP, pH=8.0, 30° C.; mean of two independent studies
Source text: (§1) Examples of the recombinant polypeptide (also referred to as “modified carboxylic acid reductase”) having the amino acid sequence A according to the present invention are illustrated in FIG. 3 (modified carboxylic acid reductase 1, SEQ ID NO: 3) and FIG. 4 (modified carboxylic acid reductase 2, SEQ ID NO: 4). The modified carboxylic acid reductase 1 (consisting of the polypeptide set forth in SEQ ID NO: 3) illustrated in FIG. 3 has amino acid substitutions of W283R and A303M with respect to SEQ ID NO: 1. The modified carboxylic acid reductase 2 (consisting of the polypeptide set forth in SEQ ID NO: 4) illustrated in FIG. 4 has amino acid substitutions of W283R and L335F with respect to SEQ ID NO: 1. That is, in the modified carboxylic acid reductase 1, the amino acid residue at the position corresponding to position 283 and the amino acid residue at the position corresponding to position 303 are substituted with arginine and methionine, respectively, based on the amino acid sequence set forth in SEQ ID NO: 1. In the modified carboxylic acid reductase 2, the amino acid residue at the position corresponding to position 283 and the amino acid residue at the position corresponding to position 335 are substituted with arginine and phenylalanine, respectively, based on the amino acid sequence set forth in SEQ ID NO: 1.

[2] = system: Mycobacterium abscessus carboxylic acid reductase variant W283R/A303M (modified carboxylic acid reductase 1), SEQ ID NO: 3
Source text: as §1

[3] = system: Mycobacterium abscessus carboxylic acid reductase variant L342E; conditions: literature value (Non Patent Literature 6); cited from earlier work
[4] = system: Mycobacterium abscessus carboxylic acid reductase variant G418E; conditions: literature value (Non Patent Literature 6); cited from earlier work
O=C(O)CCCCC(=O)O = assay: purified protein, by the assay type; conditions: 0.2 mM NADPH, 0.5 mM ATP, 10 mM MgCl2, 100 mM HEPES potassium buffer pH=8.0, 30° C., mean of two independent studies
[5] = other: disodium adipate 3.125-50 mM

O=C(O)CCCCC(=O)O [adipic acid, hexanedioic acid]
Kcat [1]: 3.53 s⁻¹ | Vmax [1]: 24.8 µmol/L/min | Km of the mutant enzyme for adipic acid compared to the existing variant carboxylic acid reductases (L342 and G418E mutants) ([2]; W283R/A303M mutant vs literature L342 and G418E mutants): 1/17 | Km of the mutant enzyme for adipic acid relative to that of the wild-type enzyme ([2]; W283R/A303M mutant vs wild-type enzyme): 1/20 | Kcat [3]: 2.72 ± 0.09 s⁻¹ | Km [3]: 56.6 mM | Km [4]: 18.7 mM

Mycobacterium abscessus carboxylic acid reductase variant W283R/A303M (modified carboxylic acid reductase 1), SEQ ID NO: 3 (Mycobacteroides abscessus ATCC 19977; A303M/W283R)
Km (O=C(O)CCCCC(=O)O; other: disodium adipate 0.1875-3 mM): 1.06 mM

Mycobacterium abscessus carboxylic acid reductase, wild-type, SEQ ID NO: 1 (Mycobacteroides abscessus ATCC 19977)
Km (O=C(O)CCCCC(=O)O; [5]): 23.3 mM | Vmax (O=C(O)CCCCC(=O)O; [5]): 18.1 µM/min | kcat (O=C(O)CCCCC(=O)O; [5]): 1.68 s⁻¹
